Test results published in ChEMBL document CHEMBL3044820, “Evaluation of Benzenesulfonanilide Derivatives for the Control of Crucifers Clubroot” (1996).

Key:
Assay type in all cases: functional
Plasmodiophora brassicae [1] = assay: Fungicidal activity against clubroot disease causing Plasmodiophora brassicae infested Brassica campestris under greenhouse condition assessed as disease incidence at 4 kg a.i/ha treated to soil measured after 40 to 50 days
Plasmodiophora brassicae [2] = assay: Fungicidal activity against clubroot disease causing Plasmodiophora brassicae infested Brassica campestris under greenhouse condition assessed as disease incidence at 2 kg a.i/ha treated to soil measured after 40 to 50 days
Plasmodiophora brassicae [3] = assay: Fungicidal activity against clubroot disease causing Plasmodiophora brassicae infested Brassica campestris under greenhouse condition assessed as disease incidence at 0.5 kg a.i/ha treated to soil measured after 40 to 50 days

O=[N+]([O-])c1ccc(NS(=O)(=O)c2ccccc2)c(Cl)c1
Activity (Plasmodiophora brassicae [1]): >91%
Activity (Plasmodiophora brassicae [2]): 0%

Cc1ccc(S(=O)(=O)Nc2ccc(F)cc2)cc1
Activity (Plasmodiophora brassicae [1]): 0%

O=[N+]([O-])c1ccc(NS(=O)(=O)c2ccccc2[N+](=O)[O-])cc1
Activity (Plasmodiophora brassicae [1]): 51%
Activity (Plasmodiophora brassicae [2]): 0%

O=[N+]([O-])c1ccc(NS(=O)(=O)c2ccc([N+](=O)[O-])cc2)cc1
Activity (Plasmodiophora brassicae [1]): 0%
Activity (Plasmodiophora brassicae [2]): 0%

O=[N+]([O-])c1ccc(S(=O)(=O)Nc2ccc([N+](=O)[O-])cc2Cl)cc1
Activity (Plasmodiophora brassicae [1]): 0%
Activity (Plasmodiophora brassicae [2]): 0%

Cc1ccc(S(=O)(=O)Nc2ccc([N+](=O)[O-])cc2Cl)cc1
Activity (Plasmodiophora brassicae [1]): >91%
Activity (Plasmodiophora brassicae [2]): >91%
Activity (Plasmodiophora brassicae [3]): 26%

O=[N+]([O-])c1cccc(S(=O)(=O)Nc2ccc([N+](=O)[O-])cc2Cl)c1
Activity (Plasmodiophora brassicae [1]): 71%
Activity (Plasmodiophora brassicae [2]): 26%

Cc1ccc(S(=O)(=O)Nc2c(C)cccc2[N+](=O)[O-])cc1[N+](=O)[O-]
Activity (Plasmodiophora brassicae [1]): 26%
Activity (Plasmodiophora brassicae [2]): 0%

Cc1ccc([N+](=O)[O-])cc1NS(=O)(=O)c1ccc(Cl)c([N+](=O)[O-])c1
Activity (Plasmodiophora brassicae [1]): 0%

COc1ccc([N+](=O)[O-])cc1NS(=O)(=O)c1ccccc1[N+](=O)[O-]
Activity (Plasmodiophora brassicae [1]): 0%

COc1ccc([N+](=O)[O-])cc1NS(=O)(=O)c1ccc([N+](=O)[O-])cc1
Activity (Plasmodiophora brassicae [1]): 0%

Cc1ccc(S(=O)(=O)Nc2ccc(Br)cc2)cc1
Activity (Plasmodiophora brassicae [1]): 0%

Cc1cc([N+](=O)[O-])ccc1NS(=O)(=O)c1ccc(Cl)c(Cl)c1
Activity (Plasmodiophora brassicae [1]): >91%
Activity (Plasmodiophora brassicae [2]): >91%
Activity (Plasmodiophora brassicae [3]): 0%

Cc1ccc(S(=O)(=O)Nc2ccc([N+](=O)[O-])cc2C)c(C)c1
Activity (Plasmodiophora brassicae [1]): 0%
Activity (Plasmodiophora brassicae [2]): 0%

Cc1cc([N+](=O)[O-])ccc1NS(=O)(=O)c1ccc(Cl)c(C(F)(F)F)c1
Activity (Plasmodiophora brassicae [1]): >91%
Activity (Plasmodiophora brassicae [2]): >91%
Activity (Plasmodiophora brassicae [3]): 26%

O=[N+]([O-])c1ccc(NS(=O)(=O)c2cccc(C(F)(F)F)c2)c(F)c1
Activity (Plasmodiophora brassicae [1]): >91%
Activity (Plasmodiophora brassicae [2]): >91%
Activity (Plasmodiophora brassicae [3]): >91%

O=[N+]([O-])c1ccc(NS(=O)(=O)c2cc(Cl)c(Cl)cc2Cl)c(F)c1
Activity (Plasmodiophora brassicae [1]): >91%
Activity (Plasmodiophora brassicae [2]): >91%
Activity (Plasmodiophora brassicae [3]): 71%

O=[N+]([O-])c1ccc(NS(=O)(=O)c2ccc(Cl)cc2)c(Cl)c1
Activity (Plasmodiophora brassicae [1]): >91%
Activity (Plasmodiophora brassicae [2]): >91%

O=[N+]([O-])c1ccc(NS(=O)(=O)c2cccc(C(F)(F)F)c2)c(Cl)c1
Activity (Plasmodiophora brassicae [1]): >91%
Activity (Plasmodiophora brassicae [2]): >91%
Activity (Plasmodiophora brassicae [3]): >91%

N#Cc1cccc(S(=O)(=O)Nc2ccc([N+](=O)[O-])cc2Cl)c1
Activity (Plasmodiophora brassicae [1]): 0%
Activity (Plasmodiophora brassicae [2]): 0%

Cc1ccc([N+](=O)[O-])cc1S(=O)(=O)Nc1ccc([N+](=O)[O-])cc1Cl
Activity (Plasmodiophora brassicae [1]): >91%
Activity (Plasmodiophora brassicae [2]): >91%
Activity (Plasmodiophora brassicae [3]): 0%

Cc1ccc(C)c(S(=O)(=O)Nc2ccc([N+](=O)[O-])cc2Cl)c1
Activity (Plasmodiophora brassicae [1]): >91%
Activity (Plasmodiophora brassicae [2]): >91%
Activity (Plasmodiophora brassicae [3]): 0%

Cc1ccc(S(=O)(=O)Nc2ccc([N+](=O)[O-])cc2Cl)c(C)c1
Activity (Plasmodiophora brassicae [1]): >91%
Activity (Plasmodiophora brassicae [2]): >91%
Activity (Plasmodiophora brassicae [3]): 0%

O=[N+]([O-])c1ccc(NS(=O)(=O)c2cc(C(F)(F)F)ccc2Cl)c(Cl)c1
Activity (Plasmodiophora brassicae [1]): >91%
Activity (Plasmodiophora brassicae [2]): >91%
Activity (Plasmodiophora brassicae [3]): 51%

O=[N+]([O-])c1ccc(NS(=O)(=O)c2ccc(Cl)c(Cl)c2)c(Cl)c1
Activity (Plasmodiophora brassicae [1]): >91%
Activity (Plasmodiophora brassicae [2]): 26%

O=[N+]([O-])c1ccc(NS(=O)(=O)c2cc(Cl)ccc2Cl)c(Cl)c1
Activity (Plasmodiophora brassicae [1]): >91%
Activity (Plasmodiophora brassicae [2]): >91%
Activity (Plasmodiophora brassicae [3]): 26%

Cc1ccc(S(=O)(=O)Nc2ccc([N+](=O)[O-])cc2Cl)cc1[N+](=O)[O-]
Activity (Plasmodiophora brassicae [1]): >91%
Activity (Plasmodiophora brassicae [2]): >91%
Activity (Plasmodiophora brassicae [3]): 26%

O=[N+]([O-])c1ccc(NS(=O)(=O)c2cc(Cl)c(Cl)cc2Cl)c(Cl)c1
Activity (Plasmodiophora brassicae [1]): >91%
Activity (Plasmodiophora brassicae [2]): >91%
Activity (Plasmodiophora brassicae [3]): 51%

O=[N+]([O-])c1cc(Cl)c(NS(=O)(=O)c2ccccc2)c(Cl)c1
Activity (Plasmodiophora brassicae [1]): >91%
Activity (Plasmodiophora brassicae [2]): 0%

Cc1ccc([N+](=O)[O-])cc1S(=O)(=O)Nc1c(Cl)cc([N+](=O)[O-])cc1Cl
Activity (Plasmodiophora brassicae [1]): >91%
Activity (Plasmodiophora brassicae [2]): >91%
Activity (Plasmodiophora brassicae [3]): 26%

Cc1ccc(S(=O)(=O)Nc2ccc([N+](=O)[O-])cc2)cc1[N+](=O)[O-]
Activity (Plasmodiophora brassicae [1]): 26%
Activity (Plasmodiophora brassicae [2]): 0%

Cc1cc([N+](=O)[O-])ccc1NS(=O)(=O)c1ccc(C)c([N+](=O)[O-])c1
Activity (Plasmodiophora brassicae [1]): 0%
Activity (Plasmodiophora brassicae [2]): 0%

Cc1cc([N+](=O)[O-])ccc1NS(=O)(=O)c1ccc([N+](=O)[O-])cc1
Activity (Plasmodiophora brassicae [1]): 0%
Activity (Plasmodiophora brassicae [2]): 0%

Cc1cc([N+](=O)[O-])ccc1NS(=O)(=O)c1cccc(C#N)c1
Activity (Plasmodiophora brassicae [1]): 0%
Activity (Plasmodiophora brassicae [2]): 0%

Cc1cc([N+](=O)[O-])ccc1NS(=O)(=O)c1ccc(Cl)cc1
Activity (Plasmodiophora brassicae [1]): >91%
Activity (Plasmodiophora brassicae [2]): 0%

Cc1ccc(S(=O)(=O)Nc2ccc([N+](=O)[O-])cc2C)cc1
Activity (Plasmodiophora brassicae [1]): 0%
Activity (Plasmodiophora brassicae [2]): 0%

Cc1ccc(C)c(S(=O)(=O)Nc2ccc([N+](=O)[O-])cc2C)c1
Activity (Plasmodiophora brassicae [1]): >91%
Activity (Plasmodiophora brassicae [2]): 26%

O=S(=O)(Nc1ccc(C(F)(F)F)cc1)c1cccc(C(F)(F)F)c1
Activity (Plasmodiophora brassicae [1]): 0%

O=S(=O)(Nc1ccc(C(F)(F)F)cc1)c1ccc(Cl)c(Cl)c1
Activity (Plasmodiophora brassicae [1]): >91%
Activity (Plasmodiophora brassicae [2]): 26%
Activity (Plasmodiophora brassicae [3]): 0%

N#Cc1cccc(S(=O)(=O)Nc2ccc(C(F)(F)F)cc2)c1
Activity (Plasmodiophora brassicae [1]): 26%
Activity (Plasmodiophora brassicae [2]): 0%

N#Cc1cccc(S(=O)(=O)Nc2ccc(Cl)cc2Cl)c1
Activity (Plasmodiophora brassicae [1]): 0%

O=S(=O)(Nc1ccccc1Cl)c1cc(C(F)(F)F)ccc1Cl
Activity (Plasmodiophora brassicae [1]): 0%

O=S(=O)(Nc1ccc(C(F)(F)F)cc1Cl)c1cccc(C(F)(F)F)c1
Activity (Plasmodiophora brassicae [1]): >91%
Activity (Plasmodiophora brassicae [2]): >91%
Activity (Plasmodiophora brassicae [3]): >91%

O=S(=O)(Nc1ccc(C(F)(F)F)cc1Cl)c1cc(C(F)(F)F)ccc1Cl
Activity (Plasmodiophora brassicae [1]): >91%
Activity (Plasmodiophora brassicae [2]): >91%
Activity (Plasmodiophora brassicae [3]): >91%

O=S(=O)(Nc1ccc(C(F)(F)F)cc1Cl)c1ccc(Cl)c(Cl)c1
Activity (Plasmodiophora brassicae [1]): >91%
Activity (Plasmodiophora brassicae [2]): >91%
Activity (Plasmodiophora brassicae [3]): 51%

O=S(=O)(Nc1ccc(C(F)(F)F)cc1Cl)c1ccc(Cl)c(C(F)(F)F)c1
Activity (Plasmodiophora brassicae [1]): >91%
Activity (Plasmodiophora brassicae [2]): >91%
Activity (Plasmodiophora brassicae [3]): 26%

O=S(=O)(Nc1ccc(C(F)(F)F)cc1Cl)c1ccc(Cl)cc1
Activity (Plasmodiophora brassicae [1]): >91%
Activity (Plasmodiophora brassicae [2]): >91%
Activity (Plasmodiophora brassicae [3]): 26%

Cc1ccc(S(=O)(=O)Nc2ccc(C(F)(F)F)cc2Cl)cc1
Activity (Plasmodiophora brassicae [1]): 51%
Activity (Plasmodiophora brassicae [2]): 0%

N#Cc1cccc(S(=O)(=O)Nc2ccc(C(F)(F)F)cc2Cl)c1
Activity (Plasmodiophora brassicae [1]): 51%
Activity (Plasmodiophora brassicae [2]): 0%

O=S(=O)(Nc1cc(C(F)(F)F)ccc1Cl)c1cccc(C(F)(F)F)c1
Activity (Plasmodiophora brassicae [1]): >91%
Activity (Plasmodiophora brassicae [2]): >91%
Activity (Plasmodiophora brassicae [3]): 0%

N#Cc1ccc(NS(=O)(=O)c2cccc(C(F)(F)F)c2)cc1
Activity (Plasmodiophora brassicae [1]): 0%

N#Cc1ccc(NS(=O)(=O)c2ccc(Cl)c(Cl)c2)cc1
Activity (Plasmodiophora brassicae [1]): 0%

N#Cc1ccc(NS(=O)(=O)c2cccc(C(F)(F)F)c2)c(Cl)c1
Activity (Plasmodiophora brassicae [1]): >91%
Activity (Plasmodiophora brassicae [2]): 51%
Activity (Plasmodiophora brassicae [3]): 0%

COC(=O)c1ccc(NS(=O)(=O)c2cccc(C(F)(F)F)c2)cc1
Activity (Plasmodiophora brassicae [1]): 0%

CCOC(=O)c1ccc(NS(=O)(=O)c2cccc(C(F)(F)F)c2)cc1
Activity (Plasmodiophora brassicae [1]): 0%
Activity (Plasmodiophora brassicae [2]): 0%

CCCOC(=O)c1ccc(NS(=O)(=O)c2cccc(C(F)(F)F)c2)cc1
Activity (Plasmodiophora brassicae [1]): 0%
Activity (Plasmodiophora brassicae [2]): 0%

CCOC(=O)c1ccc(NS(=O)(=O)c2ccc(Cl)cc2)c(Cl)c1
Activity (Plasmodiophora brassicae [1]): 0%

COC(=O)c1ccc(NS(=O)(=O)c2ccc(Cl)c(C(F)(F)F)c2)c(Cl)c1
Activity (Plasmodiophora brassicae [1]): 0%

COC(=O)c1ccc(NS(=O)(=O)c2ccc(Cl)c(Cl)c2)c(Cl)c1
Activity (Plasmodiophora brassicae [1]): 0%

CN(C)C(=O)c1ccc(NS(=O)(=O)c2cccc(C(F)(F)F)c2)cc1
Activity (Plasmodiophora brassicae [1]): 0%

CN(C)C(=O)c1ccc(NS(=O)(=O)c2cccc(C(F)(F)F)c2)c(Cl)c1
Activity (Plasmodiophora brassicae [1]): 0%

CN(C)C(=O)c1ccc(NS(=O)(=O)c2ccc(Cl)c(Cl)c2)c(Cl)c1
Activity (Plasmodiophora brassicae [1]): 0%

O=[N+]([O-])c1cc(Cl)c(NS(=O)(=O)c2ccc(Cl)cc2)c(Cl)c1
Activity (Plasmodiophora brassicae [1]): >91%
Activity (Plasmodiophora brassicae [2]): >91%
Activity (Plasmodiophora brassicae [3]): 0%

Cc1ccc(NS(=O)(=O)c2ccc(C)c([N+](=O)[O-])c2)c([N+](=O)[O-])c1
Activity (Plasmodiophora brassicae [1]): 0%

Cc1ccc(NS(=O)(=O)c2ccc([N+](=O)[O-])cc2)c([N+](=O)[O-])c1
Activity (Plasmodiophora brassicae [1]): 0%

Cc1ccc(S(=O)(=O)Nc2cccc([N+](=O)[O-])c2)cc1[N+](=O)[O-]
Activity (Plasmodiophora brassicae [1]): 0%

O=[N+]([O-])c1cccc(NS(=O)(=O)c2ccccc2[N+](=O)[O-])c1
Activity (Plasmodiophora brassicae [1]): 0%

O=[N+]([O-])c1cccc(NS(=O)(=O)c2cccc([N+](=O)[O-])c2)c1
Activity (Plasmodiophora brassicae [1]): 0%

Cc1ccc(S(=O)(=O)Nc2cc([N+](=O)[O-])ccc2Cl)cc1[N+](=O)[O-]
Activity (Plasmodiophora brassicae [1]): 26%
Activity (Plasmodiophora brassicae [2]): 0%

Cc1ccc(S(=O)(=O)Nc2ccc(F)c([N+](=O)[O-])c2)cc1[N+](=O)[O-]
Activity (Plasmodiophora brassicae [1]): 51%
Activity (Plasmodiophora brassicae [2]): 26%

Cc1ccc([N+](=O)[O-])cc1NS(=O)(=O)c1ccc(C)c([N+](=O)[O-])c1
Activity (Plasmodiophora brassicae [1]): 0%

COc1ccc([N+](=O)[O-])cc1NS(=O)(=O)c1cccc([N+](=O)[O-])c1
Activity (Plasmodiophora brassicae [1]): 0%

Cc1ccc([N+](=O)[O-])cc1NS(=O)(=O)c1ccc([N+](=O)[O-])cc1
Activity (Plasmodiophora brassicae [1]): 0%

Cc1cc([N+](=O)[O-])ccc1NS(=O)(=O)c1cc(Cl)ccc1Cl
Activity (Plasmodiophora brassicae [1]): >91%
Activity (Plasmodiophora brassicae [2]): >91%
Activity (Plasmodiophora brassicae [3]): 51%

O=[N+]([O-])c1ccc(S(=O)(=O)Nc2cccc([N+](=O)[O-])c2)cc1
Activity (Plasmodiophora brassicae [1]): 0%
